# Data taken from patent publication US12168673B2 (Mitopower, Inc., priority 2022, dated 2024).
# Key:
# [1] = Solid state stability (purity by UPLC); format: physicochemical
# Description: Compounds 100, 101 and 102 were kept in glass vials at three different locations at temperatures of […], 2-8° C. and −20° C. in order to assess solid state stability at room temperature, refrigerated conditions and in a deep freezer. The compounds from these vials were assessed for purity by UPLC at three different timepoints 0 hrs, 24 hrs and 48 hrs. Table 2 depicts the results obtained for solid state stability at 25° C., 2-8° C. and −20° C. respectively. Purity measurements were made at 0 hrs, 24 hours and 48 hours.
# [2] = Stability in solutions (pH range, simulated gastric fluid, simulated intestinal fluid); format: physicochemical
# Description: 1 mg/ml solutions of compound 100 were prepared in each buffer, diluted to 0.1 mg/ml in methanol at each time point and analyzed as follows: Gemini C-18, 250×4.6 mm, 5 im, Mobile Phase: Methanol Isocratic Flow Rate: 0.4 mL/min.
# Jurkat Cells = experiment: Cellular NAD+ levels in Jurkat cells (LCMS/MS); format: cell-based; conditions: 30 μM, four hours of incubation
# Description: Compounds 100, 101 and 102 were weighted out to prepare 60 μM stock solutions in RPMI media. 200 ng/mL solution of Rac-tenofovir d6 (Vivan Life-Sciences) was prepared in methanol (MeOH) and placed at −20° C. until use.
# Jurkat Cells, sourced from NCCS Pune, were cultured in RPMI media containing FBS & Antibiotics. Cells from different flasks (90% confluent) were pooled into a 15 mL conical tube and centrifuged for 5 mins at 1200 rpm for 5 mins. The supernatant solution was discarded, and the pellet was washed with 5 mL sterile PBS (without Ca^2+ & Mg^2+). The tube was then centrifuged at 1200 rpm for 5 mins and the supernatant was discarded. The cell pellet was resuspended in 7 mL of RPMI media, and a cell count was done using 10 uL of the cell solution. 1.5 million cells from the cell solution were seeded into 1.5 mL microcentrifuge tubes. […] The tubes were placed in racks and gently swirled to mix the compounds into the media containing the cells. These tubes were then incubated for 4 hours in a 37° C. incubator at 5% CO2. After 4 hours of incubation the cells were spun down at 1000 rpm for 10 mins, the supernatant was discarded carefully, and cells were snap frozen in liquid nitrogen. When the samples were run, the extraction of the cells was on ice, cells were lysed using 20 uL deionized water and then ice cold 80% methanol containing the internal standard—Rac-Tenofovir D was added. The tubes were then vortexed at 2500 rpm for 8 minutes and then centrifuged at […] for 10 minutes. 150 uL of the supernatant was carefully transferred to HPLC vials and was analyzed for NAD^+ on the Abscised 4000 Q Trap LCMS/MS system. A C18, 3.5 μm, 2.1×100 mm, Bridge Column was used in the LC. The mobile phase consisted of 10 mM ammonium acetate with 0.1% acetic acid and 0.1% hexylamine as Solvent-A and 10 mM Ammonium acetate with 0.1% acetic acid and 0.1% hexylamine in 95/5 MeOH/H2O as Solvent-B. The gradient used was 0 mins-0.0% B, 0.5 mins-100% B, 1.5 mins-100% B, 3.0 mins-100% B, 3.1 mins-0.0% B, 7.0-STOP. The column flow rate was 0.5 mL/min. The sample injection volume was […].
# [3] = Human hepatocyte clearance; format: in vitro ADME; conditions: human hepatocytes, 1 μM
# Description: A hepatocyte vial was taken out from the liquid nitrogen tank and was thawed in a water bath maintained at 37° C. The thawed cell suspension was transferred into a torsion tube containing 50 mL of thawing media (Xenotech). The thawing media containing hepatocytes was centrifuged at 1000 rpm for 5 min, the supernatant was discarded and the pellet was resuspended in 2 ml of Xenotech OptiIncubate Media. The cells were counted by using a haemocytometer after mixing an aliquot of cell suspension with equal volume of trypan blue. The cell suspension was diluted to a working density of 2 million cells with DMEM media without FBS/incubation media.
# The assay was performed in duplicates (n=2). 150 μL of 2 million cell working stock of hepatocyte cell suspension was added to a 24 well plate and incubated in a 37° C. incubator, with speed of 500 RPM for 10 min. 150 μL of 2 μM working stock of test compound was incubated separately. The reaction at 0, 15, 30, 60 and 90 min was stopped by precipitating 20 μL of incubation mixture with 200 μL of acetonitrile containing internal standard. […] The supernatant was separated and diluted 1:1 with water before injecting in LC-MS/MS analysis.
smiles,measurement,setting,value
"COC(=O)[C@@H](C)NP(=O)(OC[C@H]1OC(OC(=O)c2cccnc2)[C@H](O)[C@@H]1O)Oc1ccccc1 (stereo partly drawn) [Compound 101, (3R, 4S, 5R)-3,4-dihydroxy-5-(((((1-methoxy-1-oxopropan-2-yl)amino)(phenoxy)phosphoryl)oxy)methyl)tetrahydrofuran-2-yl nicotinate]",Solid State Stability (% Purity),"[1]; 2-8° C., 0 hr",93.20%
same,Solid State Stability (% Purity),"[1]; 2-8° C., 24 hr",90.57%
same,Solid State Stability (% Purity),"[1]; 2-8° C., 48 hr",90.59%
same,Solid State Stability (% Purity),"[1]; 25° C., 0 hr",93.20%
same,Solid State Stability (% Purity),"[1]; 25° C., 24 hr",89.68%
same,Solid State Stability (% Purity),"[1]; 25° C., 48 hr",90.66%
same,Solid State Stability (% Purity),"[1]; −20° C., 0 hr",93.20%
same,Solid State Stability (% Purity),"[1]; −20° C., 24 hr",90.72%
same,Solid State Stability (% Purity),"[1]; −20° C., 48 hr",90.63%
same,% remaining,"[2]; SGF (simulated gastric fluid), 0 h",90.17%
same,% remaining,"[2]; SGF (simulated gastric fluid), 1 week",3.41%
same,% remaining,"[2]; SGF (simulated gastric fluid), 1 h",88.8%
same,% remaining,"[2]; SGF (simulated gastric fluid), 2 h",87.74%
same,% remaining,"[2]; SGF (simulated gastric fluid), 4 h",83.09%
same,% remaining,"[2]; SGF (simulated gastric fluid), 8 h",77.12%
same,% remaining,"[2]; SGF (simulated gastric fluid), 24 h",41.98%
same,% remaining,"[2]; SGF (simulated gastric fluid), 48 h",29.17%
same,% remaining,"[2]; SIF (simulated intestinal fluid), 0 h",91.59%
same,% remaining,"[2]; SIF (simulated intestinal fluid), 1 week",76.58%
same,% remaining,"[2]; SIF (simulated intestinal fluid), 1 h",91.12%
same,% remaining,"[2]; SIF (simulated intestinal fluid), 2 h",91.16%
same,% remaining,"[2]; SIF (simulated intestinal fluid), 4 h",90.07%
same,% remaining,"[2]; SIF (simulated intestinal fluid), 8 h",90.28%
same,% remaining,"[2]; SIF (simulated intestinal fluid), 24 h",85.29%
same,% remaining,"[2]; SIF (simulated intestinal fluid), 48 h",85.54%
same,% remaining,"[2]; pH 1, 0 h",88.03%
same,% remaining,"[2]; pH 1, 1 week",1.01%
same,% remaining,"[2]; pH 1, 1 h",85.91%
same,% remaining,"[2]; pH 1, 2 h",85.4%
same,% remaining,"[2]; pH 1, 4 h",81.82%
same,% remaining,"[2]; pH 1, 8 h",74.41%
same,% remaining,"[2]; pH 1, 24 h",50.26%
same,% remaining,"[2]; pH 1, 48 h",16.35%
same,% remaining,"[2]; pH 2, 0 h",88.86%
same,% remaining,"[2]; pH 2, 1 week",13.5%
same,% remaining,"[2]; pH 2, 1 h",88.82%
same,% remaining,"[2]; pH 2, 2 h",87.46%
same,% remaining,"[2]; pH 2, 4 h",85.16%
same,% remaining,"[2]; pH 2, 8 h",81.19%
same,% remaining,"[2]; pH 2, 24 h",63.31%
same,% remaining,"[2]; pH 2, 48 h",35.33%
same,% remaining,"[2]; pH 4, 0 h",82.98%
same,% remaining,"[2]; pH 4, 1 week",37.7%
same,% remaining,"[2]; pH 4, 1 h",83.96%
same,% remaining,"[2]; pH 4, 2 h",82.79%
same,% remaining,"[2]; pH 4, 4 h",81.96%
same,% remaining,"[2]; pH 4, 8 h",79.6%
same,% remaining,"[2]; pH 4, 24 h",70.75%
same,% remaining,"[2]; pH 4, 48 h",69.7%
same,% remaining,"[2]; pH 6, 0 h",88.78%
same,% remaining,"[2]; pH 6, 1 week",73.66%
same,% remaining,"[2]; pH 6, 1 h",88.01%
same,% remaining,"[2]; pH 6, 2 h",87.98%
same,% remaining,"[2]; pH 6, 4 h",87.55%
same,% remaining,"[2]; pH 6, 8 h",86.2%
same,% remaining,"[2]; pH 6, 24 h",86.09%
same,% remaining,"[2]; pH 6, 48 h",73.74%
same,% remaining,"[2]; pH 7.4, 0 h",88.58%
same,% remaining,"[2]; pH 7.4, 1 week",67.37%
same,% remaining,"[2]; pH 7.4, 1 h",88.62%
same,% remaining,"[2]; pH 7.4, 2 h",88.48%
same,% remaining,"[2]; pH 7.4, 4 h",87.24%
same,% remaining,"[2]; pH 7.4, 8 h",86.71%
same,% remaining,"[2]; pH 7.4, 24 h",86.62%
same,% remaining,"[2]; pH 7.4, 48 h",79.75%
same,% remaining,"[2]; pH 9, 0 h",90.15%
same,% remaining,"[2]; pH 9, 1 week",0%
same,% remaining,"[2]; pH 9, 1 h",80.81%
same,% remaining,"[2]; pH 9, 2 h",70.65%
same,% remaining,"[2]; pH 9, 4 h",48.75%
same,% remaining,"[2]; pH 9, 8 h",26.14%
same,% remaining,"[2]; pH 9, 24 h",4.45%
same,% remaining,"[2]; pH 9, 48 h",0%
same,NAD+ level increase compared to untreated cells,Jurkat Cells,showed statistical significance in terms of NAD^+ level increases
same,"NAD+ level increase, comparison among the compounds",Jurkat Cells,highest increase
same,half-life at 1 μM,"[3]; 0-90 min, read-out: T½",12.8 min
same,hepatocyte CLint at 1 μM,[3]; read-out: Intrinsic Clearance (CL Int),53.9 µL/min/1e6 cells
